Laboratory results: PubChem BioAssay (NCI)
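1) Cells in 96-well plates. 2) Compound, 48 h, 5 concentrations. 3) Linear interpolation between surrounding doses. 4) Unreached endpoint = highest concentration. Abbreviation: GI50, concentration required for 50% inhibition of growth. The concentration for full growth arrest is given as TGI.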

How the values were obtained:
Assay in all cases: NCI-60 cell line screen, 48 h; in the data active = GI50 below about 0.43 µM; inactive = the rest
A498 renal = tested on: A498 renal
ACHN renal = tested on: ACHN renal
CAKI-1 renal = tested on: CAKI-1 renal
CCRF-CEM leukemia = tested on: CCRF-CEM leukemia
COLO 205 colon = tested on: COLO 205 colon
DU-145 prostate = tested on: DU-145 prostate
HCC-2998 colon = tested on: HCC-2998 colon
HCT-15 colon = tested on: HCT-15 colon
HL-60(TB) leukemia = tested on: HL-60(TB) leukemia
HOP-92 NSCLC = tested on: HOP-92 NSCLC
IGROV1 ovarian = tested on: IGROV1 ovarian
LOX IMVI melanoma = tested on: LOX IMVI melanoma
M14 melanoma = tested on: M14 melanoma
MOLT-4 leukemia = tested on: MOLT-4 leukemia
NCI-H226 lung = tested on: NCI-H226 lung
NCI-H23 lung = tested on: NCI-H23 lung
NCI-H522 lung = tested on: NCI-H522 lung
NCI/ADR-RES ovarian = tested on: NCI/ADR-RES ovarian
OVCAR-5 ovarian = tested on: OVCAR-5 ovarian
PC-3 prostate = tested on: PC-3 prostate
RPMI-8226 leukemia = tested on: RPMI-8226 leukemia
RXF 393 renal = tested on: RXF 393 renal
SF-295 CNS = tested on: SF-295 CNS
SK-MEL-2 melanoma = tested on: SK-MEL-2 melanoma
SK-MEL-5 melanoma = tested on: SK-MEL-5 melanoma
SNB-19 CNS = tested on: SNB-19 CNS
UACC-257 melanoma = tested on: UACC-257 melanoma
UACC-62 melanoma = tested on: UACC-62 melanoma
UO-31 renal = tested on: UO-31 renal
786-0 renal = tested on: 786-0 renal
A549 NSCLC = tested on: A549 NSCLC
BT-549 breast = tested on: BT-549 breast
EKVX NSCLC = tested on: EKVX NSCLC
HCT-116 colon = tested on: HCT-116 colon
HOP-62 NSCLC = tested on: HOP-62 NSCLC
HS 578T breast = tested on: HS 578T breast
HT29 colon = tested on: HT29 colon
K-562 leukemia = tested on: K-562 leukemia
KM12 colon = tested on: KM12 colon
MALME-3M melanoma = tested on: MALME-3M melanoma
MCF7 breast = tested on: MCF7 breast
MDA-MB-231 breast = tested on: MDA-MB-231 breast
MDA-MB-435 = tested on: MDA-MB-435
NCI-H460 lung = tested on: NCI-H460 lung
OVCAR-3 ovarian = tested on: OVCAR-3 ovarian
OVCAR-4 ovarian = tested on: OVCAR-4 ovarian
OVCAR-8 ovarian = tested on: OVCAR-8 ovarian
SF-268 CNS = tested on: SF-268 CNS
SF-539 CNS = tested on: SF-539 CNS
SK-MEL-28 melanoma = tested on: SK-MEL-28 melanoma
SK-OV-3 ovarian = tested on: SK-OV-3 ovarian
SNB-75 CNS = tested on: SNB-75 CNS
SR leukemia = tested on: SR leukemia
SW-620 colon = tested on: SW-620 colon
TK-10 renal = tested on: TK-10 renal
U251 CNS = tested on: U251 CNS
SN12C renal = tested on: SN12C renal
T-47D breast = tested on: T-47D breast

C=CCn1c(C)nc2cc(Nc3nc(N4CCCC4)nc4nc[nH]c34)ccc21
> 100000 nM: TGI (ACHN renal) | TGI (HCC-2998 colon) | TGI (HOP-92 NSCLC) | TGI (NCI-H23 lung)
> 100 µM: TGI (A498 renal) | TGI (CAKI-1 renal) | TGI (CCRF-CEM leukemia) | TGI (COLO 205 colon) | TGI (DU-145 prostate) | TGI (HCT-15 colon) | TGI (HL-60(TB) leukemia) | TGI (IGROV1 ovarian) | TGI (LOX IMVI melanoma) | TGI (M14 melanoma) | TGI (MOLT-4 leukemia) | TGI (NCI-H226 lung) | TGI (NCI-H522 lung) | TGI (NCI/ADR-RES ovarian) | TGI (OVCAR-5 ovarian) | TGI (PC-3 prostate) | TGI (RPMI-8226 leukemia) | TGI (RXF 393 renal) | TGI (SF-295 CNS) | TGI (SK-MEL-2 melanoma) | TGI (SK-MEL-5 melanoma) | TGI (SNB-19 CNS) | TGI (UACC-257 melanoma) | TGI (UACC-62 melanoma) | TGI (UO-31 renal)
inactive: GI50 (A498 renal) > 100000 nM | GI50 (ACHN renal) > 100000 nM | GI50 (CAKI-1 renal) > 100000 nM | GI50 (CCRF-CEM leukemia) 54.5 µM | GI50 (COLO 205 colon) 3160 nM | GI50 (DU-145 prostate) > 100000 nM | GI50 (HCC-2998 colon) > 100000 nM | GI50 (HCT-15 colon) > 100000 nM | GI50 (HL-60(TB) leukemia) > 100000 nM | GI50 (HOP-92 NSCLC) > 100000 nM | GI50 (IGROV1 ovarian) > 100000 nM | GI50 (LOX IMVI melanoma) > 100000 nM | GI50 (M14 melanoma) 29.6 µM | GI50 (MOLT-4 leukemia) > 100000 nM | GI50 (NCI-H226 lung) > 100000 nM | GI50 (NCI-H23 lung) > 100000 nM | GI50 (NCI-H522 lung) > 100000 nM | GI50 (NCI/ADR-RES ovarian) > 100000 nM | GI50 (OVCAR-5 ovarian) > 100000 nM | GI50 (PC-3 prostate) > 100000 nM | GI50 (RPMI-8226 leukemia) > 100000 nM | GI50 (RXF 393 renal) > 100000 nM | GI50 (SF-295 CNS) > 100000 nM | GI50 (SK-MEL-2 melanoma) > 100000 nM | GI50 (SK-MEL-5 melanoma) > 100000 nM | GI50 (SNB-19 CNS) > 100000 nM | GI50 (UACC-257 melanoma) > 100000 nM | GI50 (UACC-62 melanoma) > 100000 nM | GI50 (UO-31 renal) > 100000 nM

COc1ccccc1NC(=S)Nc1ccccn1
> 100 µM: TGI (786-0 renal) | TGI (A498 renal) | TGI (A549 NSCLC) | TGI (BT-549 breast) | TGI (CAKI-1 renal) | TGI (CCRF-CEM leukemia) | TGI (COLO 205 colon) | TGI (EKVX NSCLC) | TGI (HCT-15 colon) | TGI (HL-60(TB) leukemia) | TGI (HOP-62 NSCLC) | TGI (HS 578T breast) | TGI (IGROV1 ovarian) | TGI (K-562 leukemia) | TGI (KM12 colon) | TGI (LOX IMVI melanoma) | TGI (M14 melanoma) | TGI (MCF7 breast) | TGI (MOLT-4 leukemia) | TGI (NCI-H226 lung) | TGI (NCI-H522 lung) | TGI (NCI/ADR-RES ovarian) | TGI (OVCAR-3 ovarian) | TGI (OVCAR-4 ovarian) | TGI (OVCAR-5 ovarian) | TGI (OVCAR-8 ovarian) | TGI (PC-3 prostate) | TGI (RPMI-8226 leukemia) | TGI (RXF 393 renal) | TGI (SF-268 CNS) | TGI (SF-295 CNS) | TGI (SK-MEL-2 melanoma) | TGI (SK-MEL-5 melanoma) | TGI (SK-OV-3 ovarian) | TGI (SNB-19 CNS) | TGI (SR leukemia) | TGI (SW-620 colon) | TGI (TK-10 renal) | TGI (U251 CNS) | TGI (UACC-257 melanoma) | TGI (UACC-62 melanoma) | TGI (UO-31 renal)
> 100000 nM: TGI (HCT-116 colon) | TGI (HT29 colon) | TGI (MALME-3M melanoma) | TGI (MDA-MB-231 breast) | TGI (MDA-MB-435) | TGI (NCI-H460 lung) | TGI (SF-539 CNS) | TGI (SK-MEL-28 melanoma) | TGI (SNB-75 CNS)

O=[N+]([O-])c1cc2c(ccc3ccccc32)o1
2.35 µM: TGI (HCT-15 colon)
0.296 µM: TGI (SK-MEL-5 melanoma)
3.63 µM: TGI (786-0 renal)
4.52 µM: TGI (HL-60(TB) leukemia)
1.04 µM: TGI (COLO 205 colon)
2.18 µM: TGI (NCI-H522 lung)
4.92 µM: TGI (HOP-62 NSCLC)
4.81 µM: TGI (DU-145 prostate)
0.277 µM: TGI (A498 renal)
3.06 µM: TGI (CAKI-1 renal)
2890 nM: TGI (MDA-MB-231 breast)
22.7 µM: TGI (SN12C renal)
3.01 µM: TGI (MCF7 breast)
774 nM: TGI (HOP-92 NSCLC)
823 nM: TGI (HCC-2998 colon)
1.72 µM: TGI (UACC-62 melanoma)
5.62 µM: TGI (U251 CNS)
4.02 µM: TGI (KM12 colon)
0.789 µM: TGI (RXF 393 renal)
> 35.4 µM: TGI (SNB-19 CNS)
2.82 µM: TGI (UO-31 renal)
2030 nM: TGI (NCI-H23 lung)
0.487 µM: TGI (LOX IMVI melanoma)
9.01 µM: TGI (K-562 leukemia)
14.5 µM: TGI (PC-3 prostate)
5.28 µM: TGI (HS 578T breast)
31.9 µM: TGI (T-47D breast)
1800 nM: TGI (HT29 colon)
2970 nM: TGI (SF-539 CNS)
inactive: GI50 (786-0 renal) 720 nM | GI50 (CCRF-CEM leukemia) 0.47 µM | GI50 (HOP-62 NSCLC) 1310 nM | GI50 (HS 578T breast) 1400 nM | GI50 (IGROV1 ovarian) 703 nM | GI50 (KM12 colon) 973 nM | GI50 (MDA-MB-231 breast) 442 nM | GI50 (MOLT-4 leukemia) 470 nM | GI50 (NCI-H226 lung) 1270 nM | GI50 (NCI-H522 lung) 563 nM | GI50 (NCI/ADR-RES ovarian) 635 nM | GI50 (OVCAR-3 ovarian) 1310 nM | GI50 (OVCAR-4 ovarian) 1760 nM | GI50 (OVCAR-5 ovarian) 1530 nM | GI50 (OVCAR-8 ovarian) 550 nM | GI50 (PC-3 prostate) 1850 nM | GI50 (RPMI-8226 leukemia) 1130 nM | GI50 (SF-268 CNS) 455 nM | GI50 (SF-539 CNS) 617 nM | GI50 (SK-OV-3 ovarian) 571 nM | GI50 (SN12C renal) 568 nM | GI50 (SNB-19 CNS) 966 nM | GI50 (SNB-75 CNS) 497 nM | GI50 (T-47D breast) 1570 nM | GI50 (TK-10 renal) 1820 nM | GI50 (U251 CNS) 835 nM
585 nM: TGI (SK-MEL-28 melanoma)
0.417 µM: TGI (UACC-257 melanoma)
5.91 µM: TGI (SW-620 colon)
12.6 µM: TGI (OVCAR-5 ovarian)
6.25 µM: TGI (SK-OV-3 ovarian)
1060 nM: TGI (NCI-H460 lung)
6.81 µM: TGI (RPMI-8226 leukemia)
3.34 µM: TGI (SF-295 CNS)
368 nM: TGI (MALME-3M melanoma)
3.12 µM: TGI (A549 NSCLC)
480 nM: TGI (ACHN renal)
7.43 µM: TGI (TK-10 renal)
350 nM: TGI (MDA-MB-435)
5.56 µM: TGI (IGROV1 ovarian)
> 39.9 µM: TGI (SR leukemia)
4.22 µM: TGI (NCI-H226 lung)
5.83 µM: TGI (OVCAR-8 ovarian)
active: GI50 (A498 renal) 127 nM | GI50 (A549 NSCLC) 413 nM | GI50 (ACHN renal) 147 nM | GI50 (CAKI-1 renal) 310 nM | GI50 (COLO 205 colon) 268 nM | GI50 (DU-145 prostate) 341 nM | GI50 (HCC-2998 colon) 252 nM | GI50 (HCT-116 colon) 215 nM | GI50 (HCT-15 colon) 345 nM | GI50 (HL-60(TB) leukemia) 331 nM | GI50 (HOP-92 NSCLC) 257 nM | GI50 (HT29 colon) 307 nM | GI50 (K-562 leukemia) 376 nM | GI50 (LOX IMVI melanoma) 166 nM | GI50 (M14 melanoma) 0.173 µM | GI50 (MALME-3M melanoma) 175 nM | GI50 (MCF7 breast) 212 nM | GI50 (MDA-MB-435) 158 nM | GI50 (NCI-H23 lung) 331 nM | GI50 (NCI-H460 lung) 276 nM | GI50 (RXF 393 renal) 311 nM | GI50 (SF-295 CNS) 347 nM | GI50 (SK-MEL-2 melanoma) 202 nM | GI50 (SK-MEL-28 melanoma) 210 nM | GI50 (SK-MEL-5 melanoma) 141 nM | GI50 (SR leukemia) 346 nM | GI50 (SW-620 colon) 404 nM | GI50 (UACC-257 melanoma) 188 nM | GI50 (UACC-62 melanoma) 426 nM | GI50 (UO-31 renal) 403 nM
9.73 µM: TGI (SF-268 CNS)
2270 nM: TGI (SNB-75 CNS)
5.96 µM: TGI (NCI/ADR-RES ovarian)
0.416 µM: TGI (SK-MEL-2 melanoma)
73.9 µM: TGI (MOLT-4 leukemia)
11 µM: TGI (OVCAR-4 ovarian)
0.472 µM: TGI (M14 melanoma)
4.64 µM: TGI (OVCAR-3 ovarian)
855 nM: TGI (HCT-116 colon)
> 35.6 µM: TGI (CCRF-CEM leukemia)
